Experimental findings from ChEMBL document CHEMBL4622979, “Non-rigid Diarylmethyl Analogs of Baloxavir as Cap-Dependent Endonuclease Inhibitors of Influenza Viruses” (J Med Chem, 2020) are described below.

Series [1] can be described thus: Tmax in CD1 mouse liver assessed as baloxavir acid level at 15 mg/kg, po administered as single dose measured up to 24 hrs by LC-MS/MS analysis. It counts as ADME, organism-based. Conditions: in vivo.
A short description of series [2]: AUClast in CD1 mouse liver assessed as baloxavir acid level at 15 mg/kg, po administered as single dose measured up to 24 hrs by LC-MS/MS analysis. Format: ADME, organism-based. Conditions: in vivo.
Series [3] is described as follows: Cmax in CD1 mouse liver assessed as baloxavir acid level at 15 mg/kg, po administered as single dose measured up to 24 hrs by LC-MS/MS analysis. Format: ADME, organism-based. On the set-up: dose 15 mg/kg, route oral. The conditions noted are these: in vivo.
The nature of series [4]: AUCinfinity in CD1 mouse small intestine assessed as baloxavir acid level at 15 mg/kg, po administered as single dose measured up to 24 hrs by LC-MS/MS analysis. Format: ADME, organism-based. Further details: dose 15 mg/kg, route oral, time infinity. Conditions: in vivo.
Series [5] is described as follows: Half life in CD1 mouse blood assessed as baloxavir acid level at 15 mg/kg, po administered as single dose measured up to 24 hrs by LC-MS/MS analysis. Format: ADME, organism-based. The conditions noted are these: in vivo.
A short description of series [6]: Ratio of AUClast in CD1 mouse brain to plasma assessed as baloxavir acid level at 15 mg/kg, po administered as single dose measured up to 24 hrs by LC-MS/MS analysis. Format: ADME, organism-based.
The nature of series [7]: AUClast in CD1 mouse muscle assessed as baloxavir acid level at 15 mg/kg, po administered as single dose measured up to 24 hrs by LC-MS/MS analysis. It counts as ADME, organism-based, Muscle tissue. Conditions: in vivo.
Series [8] in a line: Elimination rate constant in CD1 mouse spleen assessed as baloxavir acid level at 15 mg/kg, po administered as single dose measured up to 24 hrs by LC-MS/MS analysis. Conditions: in vivo. Format: ADME, organism-based.
Series [9] can be described thus: Ratio of AUClast in CD1 mouse small intestine to plasma assessed as baloxavir acid level at 15 mg/kg, po administered as single dose measured up to 24 hrs by LC-MS/MS analysis. Format: ADME, organism-based. The conditions noted are these: other tissue.
A short description of series [10]: AUCinfinity in CD1 mouse heart assessed as baloxavir acid level at 15 mg/kg, po administered as single dose measured up to 24 hrs by LC-MS/MS analysis. It counts as ADME, organism-based. Further details: dose 15 mg/kg, time infinity, route oral. The conditions noted are these: in vivo.
Series [11] in a line: AUCinfinity in CD1 mouse lung assessed as baloxavir acid level at 15 mg/kg, po administered as single dose measured up to 24 hrs by LC-MS/MS analysis. It counts as ADME, organism-based. Further details: dose 15 mg/kg, route oral, time infinity. Conditions: in vivo.
Series [12] is described as follows: Acute toxicity in CD1 mouse assessed as effect on water consumption at 2000 mg/kg, po measured for 2 weeks. Format: organism-based. Conditions: in vivo, 336 h.
The nature of series [13]: Half life in CD1 mouse heart assessed as (12aR)-12-(Diphenylmethyl)-7-hydroxy-3,4,12,12a-tetrahydro-1H-[1,4]oxazino[3,4-c]pyrido[2,1-f ][1,2,4]triazine-6,8-dione level at 15 mg/kg, po administered as single dose measured up to 24 hrs by LC-MS/MS analysis. It counts as ADME, organism-based. Conditions: in vivo.
Series [14] is described as follows: Tmax in CD1 mouse brain assessed as (12aR)-12-(Diphenylmethyl)-7-hydroxy-3,4,12,12a-tetrahydro-1H-[1,4]oxazino[3,4-c]pyrido[2,1-f ][1,2,4]triazine-6,8-dione level at 15 mg/kg, po administered as single dose measured up to 24 hrs by LC-MS/MS analysis. It counts as ADME, organism-based. The conditions noted are these: in vivo.
Series [15] in a line: MRTlast in CD1 mouse heart assessed as (12aR)-12-(Diphenylmethyl)-7-hydroxy-3,4,12,12a-tetrahydro-1H-[1,4]oxazino[3,4-c]pyrido[2,1-f ][1,2,4]triazine-6,8-dione level at 15 mg/kg, po administered as single dose measured up to 24 hrs by LC-MS/MS analysis. Format: ADME, organism-based. The conditions noted are these: in vivo.
Series [16] in a line: Half life in CD1 mouse plasma assessed as (12aR)-12-(Diphenylmethyl)-7-hydroxy-3,4,12,12a-tetrahydro-1H-[1,4]oxazino[3,4-c]pyrido[2,1-f ][1,2,4]triazine-6,8-dione level at 15 mg/kg, po administered as single dose measured up to 24 hrs by LC-MS/MS analysis. Format: ADME, organism-based. The conditions noted are these: in vivo.
Series [17] can be described thus: Cmax in CD1 mouse spleen assessed as (12aR)-12-(Diphenylmethyl)-7-hydroxy-3,4,12,12a-tetrahydro-1H-[1,4]oxazino[3,4-c]pyrido[2,1-f ][1,2,4]triazine-6,8-dione level at 15 mg/kg, po administered as single dose measured up to 24 hrs by LC-MS/MS analysis. It counts as ADME, organism-based. On the set-up: dose 15 mg/kg, route oral. Conditions: in vivo.
Series [18] is described as follows: Ratio of free drug level in CD1 mouse blood assessed as (12aR)-12-(Diphenylmethyl)-7-hydroxy-3,4,12,12a-tetrahydro-1H-[1,4]oxazino[3,4-c]pyrido[2,1-f ][1,2,4]triazine-6,8-dione level at 50 mg/kg, po to EC50 for antiviral activity against Influenza A/California/04/2009 (H1N1)pdm09 infected in MDCK cells. Format: ADME, organism-based. The conditions noted are these: in vivo.

Series [19] can be described thus: AUClast in CD1 mouse spleen assessed as (12aR)-12-(Diphenylmethyl)-7-hydroxy-3,4,12,12a-tetrahydro-1H-[1,4]oxazino[3,4-c]pyrido[2,1-f ][1,2,4]triazine-6,8-dione level at 15 mg/kg, po administered as single dose measured up to 24 hrs by LC-MS/MS analysis. Format: ADME, organism-based. Conditions: in vivo.
The nature of series [20]: Ratio of AUClast in CD1 mouse heart to plasma assessed as (12aR)-12-(Diphenylmethyl)-7-hydroxy-3,4,12,12a-tetrahydro-1H-[1,4]oxazino[3,4-c]pyrido[2,1-f ][1,2,4]triazine-6,8-dione level at 15 mg/kg, po administered as single dose measured up to 24 hrs by LC-MS/MS analysis. Format: ADME, organism-based. Conditions: other tissue.
Series [21] is described as follows: Elimination rate constant in CD1 mouse spleen assessed as (12aR)-12-(Diphenylmethyl)-7-hydroxy-3,4,12,12a-tetrahydro-1H-[1,4]oxazino[3,4-c]pyrido[2,1-f ][1,2,4]triazine-6,8-dione level at 15 mg/kg, po administered as single dose measured up to 24 hrs by LC-MS/MS analysis. Format: ADME, organism-based. Conditions: in vivo.
A short description of series [22]: Cytotoxicity against human HepG2 cells assessed as reduction in cell viability measured after 24 hrs in presence of galactose by MTT assay. Format: cell-based. (In general: Formazan colour is commonly taken as a measure of viable cells.)
Series [23] can be described thus: Cmax in CD1 mouse small intestine assessed as (12aR)-12-(Diphenylmethyl)-7-hydroxy-3,4,12,12a-tetrahydro-1H-[1,4]oxazino[3,4-c]pyrido[2,1-f ][1,2,4]triazine-6,8-dione level at 15 mg/kg, po administered as single dose measured up to 24 hrs by LC-MS/MS analysis. Format: ADME, organism-based. Further details: dose 15 mg/kg, route oral. Conditions: in vivo.
Series [24] in a line: AUClast in CD1 mouse trachea assessed as (12aR)-12-(Diphenylmethyl)-7-hydroxy-3,4,12,12a-tetrahydro-1H-[1,4]oxazino[3,4-c]pyrido[2,1-f ][1,2,4]triazine-6,8-dione level at 15 mg/kg, po administered as single dose measured up to 24 hrs by LC-MS/MS analysis. It counts as ADME, organism-based. Conditions: in vivo.
The nature of series [25]: Elimination rate constant in CD1 mouse liver assessed as (12aR)-12-(Diphenylmethyl)-7-hydroxy-3,4,12,12a-tetrahydro-1H-[1,4]oxazino[3,4-c]pyrido[2,1-f ][1,2,4]triazine-6,8-dione level at 15 mg/kg, po administered as single dose measured up to 24 hrs by LC-MS/MS analysis. Conditions: in vivo. Format: ADME, organism-based.

Molecules are shown by their SMILES.

Broadly, the Tmax is the time at which the peak concentration occurs. As a reminder, the Cmax is the highest concentration seen after dosing. A word on the CC50: it is the concentration giving 50% cytotoxicity.

Regarding `COC(=O)OCOc1c2n(ccc1=O)N([C@@H]1c3ccccc3SCc3c1ccc(F)c3F)[C@@H]1COCCN1C2=O` [BALOXAVIR MARBOXIL], in [1], the Tmax amounted to 2 h. The AUClast turned out to be 85226 ng·h/g in [2] and 4716 ng·h/g in series [7]. Moreover, the Cmax in series [3] is 15342 ng/g. Besides, the figures for the AUC in series [4], in series [10] and in series [11] were 106028 ng·h/g, 9025 ng·h/g and 9025 ng·h/g, respectively. Further, in series [5], the t1/2 worked out at 3.29 h. Besides, the figures for the “Ratio AUC” value in series [6] and in [9] were 0.7 and 234, respectively. For the same compound, the Kel in [8] worked out at 0.2 h⁻¹.
For `COC(=O)OCOc1c2n(ccc1=O)N(C(c1ccccc1)c1ccccc1)[C@@H]1COCCN1C2=O`, the Activity entry in series [12] was “Non-Toxic”. Also, the t1/2 worked out at 1.69 h in [13] and 1.58 h in series [16]. The Tmax in [14] was determined as 0.5 h. The MRTlast in series [15] came to 1.88 h. Also, the Cmax was found to be 1119 ng/g in [17] and 24707 ng/g in series [23]. In [18], the Ratio amounted to 44. The AUClast in series [19] was found to be 4545 ng·h/g; in series [24], 10575 ng·h/g. Also, in [20], the “Ratio AUC” value is reported as 3.38. The Kel in series [21] was 0.39 h⁻¹; in series [25] it was 0.3 h⁻¹. In series [22], the CC50 at 24 h worked out at 57 µM.
